# Data from US5919761A, “Peptides for heparin and low molecular weight heparin anticoagulation reversal” (The Board of Regents of the University of Michigan, priority 1995, dated 1999).
# Peptide text beside a SMILES is read from it.
# Legend:
# LMWH (LHN-1, Logiparin) [1] = assay: Percent reversal of low molecular weight heparin anticoagulation, in vivo canine study, coagulation tests; set-up: species or system dogs; settings: for aPTT reversal: Logiparin
# Procedure: Anticoagulation reversal was assessed by a number of standard coagulation tests performed upon samples of venous blood: activated clotting time (ACT), heparin concentration by assay for FXa inhibitory activity (FXa), thrombin clotting time (TCT), and heparin concentration by assay for FIIa inhibitory activity (FIIa). Measurements were made 3 minutes prior to heparin reversal (baseline) and 3 minutes, 10 minutes, and 30 minutes post-administration of the heparin reversal agent. […] The coagulation data were corrected for naturally occurring metabolism.
# [2] = Hemodynamic studies and total toxicity score after LMWH reversal at different rates, canine study; settings: dogs, Logiparin; administered over 10 sec
# Procedure: (§1) The anticoagulation-reversing agents were administered rapidly over 10 seconds to maximize hemodynamic effects or more slowly over a 3 minute interval. Changes in LMWH anticoagulation occurring from metabolism alone were determined in a separate group of dogs not given any reversal agent.
# (§2) Hemodynamic studies were conducted by measuring mean arterial pressure (MAP) in mm Mercury, maximum percent changes in cardiac output (CO) and systemic oxygen consumption (VO2), and heart rate (HR) in beats per minute. Measurements and calculations were made at baseline, before LMWH administration, 3 minutes before reversal, every 30 seconds for 5 minutes after reversal, and at 10, 20, and 30 minutes after reversal.
# TTS were developed that reflected maximum declines in each of four parameters (MAP, CO, VO2 and HR) over the first 5 minutes after reversal in the same manner as described hereinabove.
# LMWH (LHN-1, Logiparin) [3] = assay: Percent reversal of LMWH anticoagulation, agents administered at different rates, canine study; assay type: in vivo, dogs
# Procedure: Anticoagulation reversal was assessed by a number of standard coagulation tests performed upon samples of venous blood in the manner described hereinabove. Measurements were made 3 minutes prior to heparin reversal (baseline) and 3 minutes, 10 minutes, and 30 minutes post-administration of the heparin reversal agent.
# [4] = Platelet and white blood cell count after LMWH reversal, canine study; assay type: in vivo; settings: dogs, Logiparin
# Procedure: In addition to the measurements reported on Table 6, studies were conducted to measure the activated partial thromboplastin time (aPTT), platelet count, and white blood cell count. […] However, the [+18B] variant produced greater aPTT reversal than protamine at the 3, 10 and 30 minute measurements (64%, 95%, and 93%, respectively, as compared to 50%, 83%, and 78%, respectively, for protamine).
# [5] = Hemodynamic studies and total toxicity score after LMWH reversal, canine study; settings: dogs
# Procedure: as §2
# Total toxicity scores (TTS) were developed that reflected maximum declines in each of four parameters (MAP, CO, VO2 and HR) over the first 5 minutes after reversal. The maximum changes occurring in an individual dog over the first 5 minutes were divided by the standard deviation derived from the entire group of tested animals and the four scores were added, resulting in a TTS for each individual dog. The TTS values for each dog were then summed to obtain an average TTS and SD for each peptide studied. The more negative the value of TTS, the more toxic the compound.
# [6] = Platelet count, leukocyte count and bleeding time after LMWH reversal at different rates, canine study; assay type: in vivo, dogs; settings: dogs, Logiparin; administered over 10 sec
# Procedure: as §1
# [7] = administered over 10 sec, 3 min
# [8] = administered over 10 sec, 10 min
# [9] = administered over 10 sec, 30 min
# [10] = Logiparin, maximum percent change
structure (smiles),measurement,setting,value
"CC(=O)N1CCC[C@H]1C(=O)N[C@@H](C)C(=O)N[C@@H](CCCCN)C(=O)N[C@@H](CCCCN)C(=O)N[C@@H](C)C(=O)N[C@@H](C)C(=O)N[C@@H](CCCCN)C(=O)N[C@@H](CCCCN)C(=O)N[C@@H](C)C(=O)N[C@@H](CCCCN)C(=O)N[C@@H](CCCCN)C(=O)N[C@@H](C)C(=O)N[C@@H](C)C(=O)N[C@@H](CCCCN)C(=O)N[C@@H](CCCCN)C(=O)N[C@@H](C)C(=O)N[C@@H](CCCCN)C(=O)N[C@@H](CCCCN)C(=O)N[C@@H](C)C(=O)N[C@@H](C)C(=O)N[C@@H](CCCCN)C(=O)N[C@@H](CCCCN)C(=O)N[C@@H](C)C(=O)N[C@@H](CCCCN)C(=O)N[C@@H](CCCCN)C(=O)N[C@@H](C)C(=O)N[C@@H](C)C(=O)N[C@@H](CCCCN)C(=O)N[C@@H](CCCCN)C(=O)N[C@@H](C)C(=O)N[C@@H](CCCCN)C(=O)N[C@@H](CCCCN)C(N)=O [[+18B], acetyl-PA(K2 A2 K2 A)4 K2 -amide] (Ac-PAKKAAKKAKKAAKKAKKAAKKAKKAAKKAKK-NH2)",aPTT reversal,"LMWH (LHN-1, Logiparin) [1]; dogs, 3 minute measurement",64%
same,aPTT reversal,"LMWH (LHN-1, Logiparin) [1]; dogs, 10 minute measurement",95%
same,aPTT reversal,"LMWH (LHN-1, Logiparin) [1]; dogs, 30 minute measurement",93%
same,"Percent reversal of LMWH anticoagulation, ACT","LMWH (LHN-1, Logiparin) [1]; dogs, Logiparin 150 IU/kg, agent 1.5 mg/kg IV after 30 min, 3 min post-administration, corrected for metabolism",87%
same,"Percent reversal of LMWH anticoagulation, FNa","LMWH (LHN-1, Logiparin) [1]; same study, 3 min",96%
same,"Percent reversal of LMWH anticoagulation, FXa","LMWH (LHN-1, Logiparin) [1]; same study, 3 min",64%
same,"Percent reversal of LMWH anticoagulation, TCT","LMWH (LHN-1, Logiparin) [1]; same study, 3 min",99%
same,"Percent reversal of LMWH anticoagulation, ACT","LMWH (LHN-1, Logiparin) [1]; same study, 10 min",93%
same,"Percent reversal of LMWH anticoagulation, FNa","LMWH (LHN-1, Logiparin) [1]; same study, 10 min",72%
same,"Percent reversal of LMWH anticoagulation, FXa","LMWH (LHN-1, Logiparin) [1]; same study, 10 min",34%
same,"Percent reversal of LMWH anticoagulation, TCT","LMWH (LHN-1, Logiparin) [1]; same study, 10 min",95%
same,"Percent reversal of LMWH anticoagulation, ACT","LMWH (LHN-1, Logiparin) [1]; same study, 30 min",102%
same,"Percent reversal of LMWH anticoagulation, FNa","LMWH (LHN-1, Logiparin) [1]; same study, 30 min",74%
same,"Percent reversal of LMWH anticoagulation, FXa","LMWH (LHN-1, Logiparin) [1]; same study, 30 min",52%
same,"Percent reversal of LMWH anticoagulation, TCT","LMWH (LHN-1, Logiparin) [1]; same study, 30 min",96%
same,Total Toxicity Score,[2],-3.1 ± 1.5
same,ΔCO,[2],-18%
same,ΔHr,[2],-9 beats per minute
same,ΔMAP,[2],-10 mm Mercury
same,ΔVO2,[2],-12%
same,"Percent reversal of LMWH anticoagulation, FNa","LMWH (LHN-1, Logiparin) [3]; [7]",95%
same,"Percent reversal of LMWH anticoagulation, FXa","LMWH (LHN-1, Logiparin) [3]; [7]",64%
same,"Percent reversal of LMWH anticoagulation, TCT","LMWH (LHN-1, Logiparin) [3]; [7]",99%
same,"Percent reversal of LMWH anticoagulation, ACT","LMWH (LHN-1, Logiparin) [3]; [8]",87%
same,"Percent reversal of LMWH anticoagulation, FNa","LMWH (LHN-1, Logiparin) [3]; [8]",72%
same,"Percent reversal of LMWH anticoagulation, FXa","LMWH (LHN-1, Logiparin) [3]; [8]",34%
same,"Percent reversal of LMWH anticoagulation, TCT","LMWH (LHN-1, Logiparin) [3]; [8]",95%
same,"Percent reversal of LMWH anticoagulation, ACT","LMWH (LHN-1, Logiparin) [3]; [9]",98%
same,"Percent reversal of LMWH anticoagulation, FNa","LMWH (LHN-1, Logiparin) [3]; [9]",74%
same,"Percent reversal of LMWH anticoagulation, FXa","LMWH (LHN-1, Logiparin) [3]; [9]",52%
same,"Percent reversal of LMWH anticoagulation, TCT","LMWH (LHN-1, Logiparin) [3]; [9]",100%
same,"Percent reversal of LMWH anticoagulation, ACT","LMWH (LHN-1, Logiparin) [3]; dogs, Logiparin, agent administered over 10 sec, 3 min post-administration",87%
same,decline in white blood cell count,[4],greatest
same,mean decline in platelet count,[4],-56%
same,Total Toxicity Score,"[5]; LMWH, 50% less dose (1:2 peptide to LMWH)",about -1.62
same,maximum mean increase in pulmonary artery diastolic (PAD) pressure,[5]; Logiparin,no increase
same,maximum mean increase in pulmonary artery systolic (PAS) pressure,[5]; Logiparin,no increase
same,ΔHR,[5]; Logiparin,-9 beats per minute
same,ΔMAP,[5]; Logiparin,-10 mm Mercury
same,Total Toxicity Score,"[5]; Logiparin, first 5 minutes after reversal, 1:1 peptide to LMWH",-4.1 ± 1.6
same,ΔCO,[5]; [10],-18%
same,ΔVO2,[5]; [10],-12%
same,Maximal decline in leukocyte count,[6],-21%
same,Maximal thrombocytopenia,[6],-56%
